Data on 36 molecules can be found in patent US9708340B2, “Urea derivatives and their use as fatty-acid binding protein (FABP) inhibitors” (Hoffmann-La Roche Inc., priority 2013, dated 2017).

pIC50: −log10 of the molar value. Read-outs that look alike come from different tables or passages of the source.

One experiment addresses human FABP4 (huFABP4) (Homo sapiens (Human), UniProt P15090). The experiment in a line: Tb TR-FRET assay, binding of Bodipy labeled fatty acid to His6 tagged huFABP4. Conditions: read-out: IC50 h-fabp4-ecoli-r.
The next experiment has as its target human FABP5 (huFABP5) (Homo sapiens (Human), UniProt Q01469). The experiment in a line: Tb TR-FRET assay, binding of Bodipy labeled fatty acid to His6 tagged huFABP5. Particulars: read-out: IC50 h-fabp5-ecoli-r.
The mark [1] stands for this setting: 50 nM FABP protein, […] Bodipy labeled fatty acid.

Sequence of human FABP5 (huFABP5) (Q01469 whole entry): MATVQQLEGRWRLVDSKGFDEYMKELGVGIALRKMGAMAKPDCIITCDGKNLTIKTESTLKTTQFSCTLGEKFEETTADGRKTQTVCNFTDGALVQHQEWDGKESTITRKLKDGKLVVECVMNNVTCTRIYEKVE
Sequence of human FABP4 (huFABP4) (P15090 whole entry): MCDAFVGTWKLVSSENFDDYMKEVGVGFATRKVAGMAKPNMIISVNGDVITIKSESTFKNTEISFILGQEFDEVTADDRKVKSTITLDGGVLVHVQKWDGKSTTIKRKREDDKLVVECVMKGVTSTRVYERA

With `O=C(O)[C@@H]1[C@H]2C[C@H]2CN1C(=O)Nc1ccccc1-c1ccccc1` (racemic) [Example 9, (1SR,2SR,5RS)-3-(Biphenyl-2-ylcarbamoyl)-3-aza-bicyclo[3.1.0]hexane-2-carboxylic acid], the pIC50 was 5.04 on human FABP4 (huFABP4) and under 4.30 at human FABP5 (huFABP5).

As to `O=C(O)C1CCCCN1C(=O)Nc1ccccc1-c1ccccc1` (stereo not drawn) [Example 1, 1-(Biphenyl-2-ylcarbamoyl)-piperidine-2-carboxylic acid], the figures for the pIC50 at human FABP4 (huFABP4) (setting [1]) and at human FABP5 (huFABP5) (setting [1]) were 5.09 and under 4.30, respectively.

Consider `O=C(O)[C@H]1CCCN1C(=O)Nc1ccc(Cl)cc1-c1ccccc1` [Example 2, (R)-1-(5-chlorobiphenyl-2-ylcarbamoyl)pyrrolidine-2-carboxylic acid], for which the values for the pIC50 on human FABP4 (huFABP4) (setting [1]) and at human FABP5 (huFABP5) (setting [1]) were 5.69 and 4.68, respectively.

In the case of `O=C(O)[C@H]1CCCN1C(=O)Nc1ccccc1Oc1ccccc1` [Example 3, (R)-1-(2-phenoxyphenylcarbamoyl)pyrrolidine-2-carboxylic acid], the pIC50 is 4.93 on human FABP4 (huFABP4) (setting [1]) and under 4.30 at human FABP5 (huFABP5) (setting [1]).

Take `O=C(O)[C@H]1CCCN1C(=O)Nc1ccccc1Cc1ccccc1` [Example 4, (R)-1-(2-benzylphenylcarbamoyl)pyrrolidine-2-carboxylic acid]: the pIC50 is 5.48 at human FABP4 (huFABP4) (setting [1]) and under 4.30 on human FABP5 (huFABP5) (setting [1]).

With `O=C(O)[C@H]1CCCN1C(=O)Nc1cc(Cl)ccc1Oc1ccccc1` [Example 5, (R)-1-(5-chloro-2-phenoxyphenylcarbamoyl)pyrrolidine-2-carboxylic acid], the pIC50 on human FABP4 (huFABP4) (setting [1]) was 5.13; at human FABP5 (huFABP5) (setting [1]) it was under 4.30.

Regarding `O=C(Nc1ccccc1-c1ccccc1)N1CCCC1(C(=O)O)c1ccccc1` (stereo not drawn) [Example 6, 1-(Biphenyl-2-ylcarbamoyl)-2-phenyl-pyrrolidine-2-carboxylic acid], the pIC50 at human FABP4 (huFABP4) (setting [1]) is 6.21; at human FABP5 (huFABP5) (setting [1]), under 4.30.

With `O=C(O)C1SCCN1C(=O)Nc1ccccc1-c1ccccc1` (stereo not drawn) [Example 7, 3-(Biphenyl-2-ylcarbamoyl)-thiazolidine-2-carboxylic acid], the pIC50 at human FABP4 (huFABP4) (setting [1]) was 5.01; on human FABP5 (huFABP5) (setting [1]), under 4.30.

As to `O=C(O)[C@H]1CSCN1C(=O)Nc1ccccc1-c1ccccc1` [Example 8, (S)-3-(Biphenyl-2-ylcarbamoyl)-thiazolidine-4-carboxylic acid], the pIC50 is 6.48 at human FABP4 (huFABP4) (setting [1]) and under 4.30 on human FABP5 (huFABP5) (setting [1]).

Regarding `O=C(O)[C@H]1CCCN1C(=O)Nc1cc(Cl)ccc1-c1ccccc1` [Example 10, (R)-1-(4-chlorobiphenyl-2-ylcarbamoyl)pyrrolidine-2-carboxylic acid], the pIC50 was 6.92 on human FABP4 (huFABP4) (setting [1]) and under 5.84 on human FABP5 (huFABP5) (setting [1]).

For `O=C(O)[C@H]1CCCN1C(=O)Nc1c(F)cccc1-c1ccccc1` [Example 11, (R)-1-(3-fluorobiphenyl-2-ylcarbamoyl)pyrrolidine-2-carboxylic acid], the pIC50 was 6.07 on human FABP4 (huFABP4) (setting [1]) and under 4.30 at human FABP5 (huFABP5) (setting [1]).

Take `O=C(O)[C@H]1CCN1C(=O)Nc1cc(Cl)ccc1-c1ccccc1` [Example 12, (R)-1-(4-chlorobiphenyl-2-ylcarbamoyl)azetidine-2-carboxylic acid]: the pIC50 on human FABP4 (huFABP4) (setting [1]) is 7.70; at human FABP5 (huFABP5) (setting [1]) it was under 4.30.

Consider `O=C(O)[C@H]1CCCN1C(=O)Nc1cc(C(F)(F)F)ccc1-c1ccccc1` [Example 13, (R)-1-(4-(trifluoromethyl)biphenyl-2-ylcarbamoyl)pyrrolidine-2-carboxylic acid], for which the pIC50 on human FABP4 (huFABP4) (setting [1]) was 5.40; at human FABP5 (huFABP5) (setting [1]), under 4.30.

On to `O=C(O)[C@H]1CCCN1C(=O)Nc1cc(F)cc(F)c1-c1ccccc1` [Example 14, (R)-1-(4,6-difluorobiphenyl-2-ylcarbamoyl)pyrrolidine-2-carboxylic acid], for which the figures for the pIC50 at human FABP4 (huFABP4) (setting [1]) and on human FABP5 (huFABP5) (setting [1]) were 6.51 and under 5.16, respectively.

`CC1(C(=O)O)CCCN1C(=O)Nc1ccccc1-c1ccccc1` (stereo not drawn) [Example 15, 1-(biphenyl-2-ylcarbamoyl)-2-methylpyrrolidine-2-carboxylic acid]: the pIC50 on human FABP4 (huFABP4) (setting [1]) was 6.07; at human FABP5 (huFABP5) (setting [1]), under 4.30.

Consider `O=C(O)[C@H]1CCCN1C(=O)Nc1cc(F)ccc1-c1ccccc1` [Example 16, (R)-1-(4-fluorobiphenyl-2-ylcarbamoyl)pyrrolidine-2-carboxylic acid], for which the pIC50 on human FABP4 (huFABP4) (setting [1]) is 5.97; at human FABP5 (huFABP5) (setting [1]), under 4.30.

With `O=C(O)[C@H]1CCCN1C(=O)Nc1cc(OC(F)(F)F)ccc1-c1ccccc1` [Example 17, (R)-1-(4-(trifluoromethoxy)biphenyl-2-ylcarbamoyl)pyrrolidine-2-carboxylic acid], the values for the pIC50 at human FABP4 (huFABP4) (setting [1]) and at human FABP5 (huFABP5) (setting [1]) were 5.24 and under 4.30, respectively.

For the molecule `O=C(O)[C@H]1CCCN1C(=O)Nc1cc(Cl)cc(-c2ccccc2)c1-c1ccccc1` [Example 19, (R)-1-(5′-Chloro-[1,1′;2′,1″]terphenyl-3′-ylcarbamoyl)-pyrrolidine-2-carboxylic acid], the pIC50 on human FABP4 (huFABP4) (setting [1]) is 6.30; at human FABP5 (huFABP5) (setting [1]), 5.91.

As for `N#Cc1ccc(-c2ccccc2)c(NC(=O)N2CCC[C@@H]2C(=O)O)c1` [Example 20, (R)-1-(4-cyanobiphenyl-2-ylcarbamoyl)pyrrolidine-2-carboxylic acid], the pIC50 at human FABP4 (huFABP4) (setting [1]) is 4.98; on human FABP5 (huFABP5) (setting [1]), under 4.30.

`O=C(O)[C@H]1CCCN1C(=O)Nc1c(-c2ccccc2)sc2ccccc12` [Example 21, (R)-1-(2-phenylbenzo[b]thiophen-3-ylcarbamoyl)pyrrolidine-2-carboxylic acid]: the pIC50 on human FABP4 (huFABP4) (setting [1]) is 6.17; on human FABP5 (huFABP5) (setting [1]), under 4.30.

With `O=C(O)[C@H]1CCCN1C(=O)Nc1c(-c2ccccc2)sc2ncccc12` [Example 22, (R)-1-(2-phenylthieno[2,3-b]pyridin-3-ylcarbamoyl)pyrrolidine-2-carboxylic acid], the pIC50 at human FABP4 (huFABP4) (setting [1]) is 5.78; at human FABP5 (huFABP5) (setting [1]) it was under 4.30.

Consider `C=CCc1cc(Cl)cc(NC(=O)N2CCC[C@@H]2C(=O)O)c1-c1ccccc1` [Example 23, (R)-1-(6-allyl-4-chlorobiphenyl-2-ylcarbamoyl)pyrrolidine-2-carboxylic acid], for which the pIC50 on human FABP4 (huFABP4) (setting [1]) was 6.96; at human FABP5 (huFABP5) (setting [1]) it was 5.89.

With `O=C(O)[C@H]1CCCN1C(=O)Nc1ccsc1-c1ccccc1` [Example 24, (R)-1-(2-phenylthiophen-3-ylcarbamoyl)pyrrolidine-2-carboxylic acid], the results for the pIC50 on human FABP4 (huFABP4) (setting [1]) and on human FABP5 (huFABP5) (setting [1]) were 5.78 and under 4.30, respectively.

Consider `N#Cc1cc(Cl)cc(NC(=O)N2CCC[C@@H]2C(=O)O)c1-c1ccccc1` [Example 25, (R)-1-(4-chloro-6-cyanobiphenyl-2-ylcarbamoyl)pyrrolidine-2-carboxylic acid], for which the values for the pIC50 on human FABP4 (huFABP4) (setting [1]) and at human FABP5 (huFABP5) (setting [1]) were 6.72 and 4.82, respectively.

Turning to `O=C(O)[C@H]1CCCN1C(=O)Nc1cc(Cl)cc(C2=CCCCC2)c1-c1ccccc1` [Example 26, (R)-1-[4-chloro-6-(cyclohexen-1-yl)-biphenyl-2-ylcarbamoyl]pyrrolidine-2-carboxylic acid], the pIC50 was 6.28 on human FABP4 (huFABP4) (setting [1]) and 7.15 at human FABP5 (huFABP5) (setting [1]).

Turning to `O=C(O)[C@@H]1CCN1C(=O)Nc1cc(Cl)ccc1-c1ccccc1` [Example 27, (S)-1-(4-chlorobiphenyl-2-ylcarbamoyl)azetidine-2-carboxylic acid], the pIC50 was 5.91 on human FABP4 (huFABP4) (setting [1]) and under 4.30 on human FABP5 (huFABP5) (setting [1]).

Regarding `O=C(O)[C@H]1CCN1C(=O)Nc1ccccc1-c1ccccc1` [Example 28, (R)-1-(biphenyl-2-ylcarbamoyl)azetidine-2-carboxylic acid], the pIC50 is 7.10 on human FABP4 (huFABP4) (setting [1]) and under 4.30 at human FABP5 (huFABP5) (setting [1]).

As for `O=C(O)[C@H]1CCN1C(=O)Nc1cc(Cl)ccc1-c1ccc(F)cc1` [Example 29, (R)-1-(4-chloro-4′-fluorobiphenyl-2-ylcarbamoyl)azetidine-2-carboxylic acid], the pIC50 on human FABP4 (huFABP4) (setting [1]) is 7.52; on human FABP5 (huFABP5) (setting [1]) it was under 4.30.

Turning to `O=C(O)[C@H]1CCN1C(=O)Nc1cc(Cl)c(F)cc1-c1ccccc1` [Example 30, (R)-1-(4-chloro-5-fluorobiphenyl-2-ylcarbamoyl)azetidine-2-carboxylic acid], the figures for the pIC50 at human FABP4 (huFABP4) (setting [1]) and on human FABP5 (huFABP5) (setting [1]) were 7.70 and 4.40, respectively.

With `Cc1cc(-c2ccccc2)c(NC(=O)N2CC[C@@H]2C(=O)O)cc1Cl` [Example 31, (R)-1-(4-chloro-5-methylbiphenyl-2-ylcarbamoyl)azetidine-2-carboxylic acid], the pIC50 at human FABP4 (huFABP4) (setting [1]) was 7.52; on human FABP5 (huFABP5) (setting [1]) it was 5.29.

Take `O=C(O)[C@H]1CCN1C(=O)Nc1cc(Cl)ccc1-c1cccc(F)c1F` [Example 36, (R)-1-(4-chloro-2′,3′-difluorobiphenyl-2-ylcarbamoyl)azetidine-2-carboxylic acid]: the pIC50 is 7.22 on human FABP4 (huFABP4) (setting [1]) and under 4.30 on human FABP5 (huFABP5) (setting [1]).

In the case of `O=C(O)[C@H]1CCN1C(=O)Nc1cc(Cl)ccc1-c1ccccc1F` [Example 37, (R)-1-(4-chloro-2′-fluorobiphenyl-2-ylcarbamoyl)azetidine-2-carboxylic acid], the pIC50 at human FABP4 (huFABP4) (setting [1]) is 7.52; at human FABP5 (huFABP5) (setting [1]), under 4.30.

As for `O=C(O)[C@H]1CCN1C(=O)Nc1cc(Cl)ccc1-c1cccc(F)c1` [Example 38, (R)-1-(4-chloro-3′-fluorobiphenyl-2-ylcarbamoyl)azetidine-2-carboxylic acid], the pIC50 was 7.52 at human FABP4 (huFABP4) (setting [1]) and under 4.30 at human FABP5 (huFABP5) (setting [1]).

In the case of `O=C(O)[C@H]1CCN1C(=O)Nc1cc(Cl)ccc1-c1cc(F)cc(F)c1` [Example 39, (R)-1-(4-chloro-3′,5′-difluorobiphenyl-2-ylcarbamoyl)azetidine-2-carboxylic acid], the pIC50 at human FABP4 (huFABP4) (setting [1]) is 7.22; at human FABP5 (huFABP5) (setting [1]), under 4.30.

As for `O=C(O)[C@H]1CCCN1C(=O)Nc1cc(Cl)ccc1-c1ccsc1` [Example 52, (R)-1-(5-chloro-2-(thiophen-3-yl)phenylcarbamoyl)pyrrolidine-2-carboxylic acid], the pIC50 on human FABP4 (huFABP4) (setting [1]) is 7.22; at human FABP5 (huFABP5) (setting [1]), under 4.98.

As for `O=C(O)[C@H]1CCCN1C(=O)Nc1cc(Cl)ccc1-c1csc2ccccc12` [Example 53, (R)-1-(2-(benzo[b]thiophen-3-yl)-5-chlorophenylcarbamoyl)pyrrolidine-2-carboxylic acid], the pIC50 on human FABP4 (huFABP4) (setting [1]) was 6.47; on human FABP5 (huFABP5) (setting [1]), 4.37.
